From patent US9248133B2, “Salts of lorcaserin with optically active acids” (Arena Pharmaceuticals, Inc., priority 2010, dated 2016)

Assays:
[1] = Dynamic moisture-sorption (DMS) analysis; settings: for DMS weight increase at 70% RH: adsorption cycle, 25° C., Form I; for State of the sample after DMS analysis: after removal from the analyzer, PXRD where done
Method: Samples were prepared for DMS analysis by placing 5 mg to 20 mg of a sample in a tared sample holder. The sample was placed on the hang-down wire of the VTI balance. A drying step was run, typically at 40° C. and 0.5-1% RH for 1-2 h. The isotherm temperature is 25° C. […] A % weight change smaller than 0.010% over a specified number of minutes (typically 10-20), or up to 2 h, whichever occurs first, is required before continuing to the next % RH hold. The water content of the sample equilibrated as described above was determined at each % RH hold.

[2] = Aqueous solubility by UPLC; assay type: physicochemical; settings: for Solubility in water: UPLC
Method: Acquity ultra performance liquid chromatography (UPLC) from Waters was used for solubility and stoichiometry determination. […] UPLC was equipped with Acquity PDA detector. UPLC mobile phase solvent A was 0.1% TFA in DI-water, solvent B was 0.1% TFA in acetonitrile.
Column temperature was 40±5° C. Acquity UPLC® HSS T3 1.8 μm, 2.1×50 mm column was used.
A known amount of sample was dissolved in water and analyzed by UPLC.

[3] = Deliquescence relative humidity (DRH) by water activity meter; assay type: physicochemical; settings: for DRH (deliquescence relative humidity): saturated aqueous solution with excess solid at 25° C.
Excerpt: If saturated in water with excess solid, a deliquescing compound or salt thereof equilibrated in a closed system at a given temperature produces a % RH in that closed system that is equal to its deliquescing % RH (DRH) at that temperature. Fractional relative humidity is equal to water activity (aw) in the vapor phase and at equilibrium in a closed system, the aw in an aqueous solution is equal to the aw in the vapor phase above the solution (see Equation 1).
A water activity meter was used to measure DRH for selected salts described herein. […] This instrument is designed with temperature control and a small headspace above the enclosed sample to establish equilibrium between solution and vapor phases quickly.

[4] = cited from earlier work
[5] = cited from earlier work; remark: listed apart in the source
[6] = pivotal phase 3 program, up to two years
[7] = second phase 3 trial, top quartile of patients
[8] = patients who completed 52 weeks of treatment according to the protocol

## (R)-8-Chloro-1-methyl-2,3,4,5-tetrahydro-1H-3-benzazepine Pyroglutamate Salt [Compound 1 Pyroglutamate Salt, Form I]
[1]
  DMS weight increase at 70% RH: ~17%
  State of the sample after DMS analysis: sticky oil
[1]; listed as Compound 1 Pyrogluconate Salt
  DMS weight increase at 70% RH: FIG. 21: 17-24% weight increase at 70% RH, about

## (R)-8-Chloro-1-methyl-2,3,4,5-tetrahydro-1H-3-benzazepine Di-camphorate Salt Solvate
[1]; 25° C. and 10% RH
  DMS weight lost on the desorption phase: over 1.2%
[1]
  State of the sample after DMS analysis: crystalline phase did not change
[2]
  Solubility in water: 38.6 mg/mL
[2]; water, pH 5.2
  Aqueous solubility expressed as the free base: 12.3 mg/mL

## (R)-8-Chloro-1-methyl-2,3,4,5-tetrahydro-1H-3-benzazepine Glucuronate Salt [Compound 1 Glucuronate Salt, Form I]
[2]
  Solubility in water: 2.5 mg/mL

## CC1(C)C2CC[C@@]1(CS(=O)(=O)O)C(=O)C2.C[C@H]1CNCCc2ccc(Cl)cc21 [(R)-8-Chloro-1-methyl-2,3,4,5-tetrahydro-1H-3-benzazepine (1S)-(+)-10-Camsylate Salt]
[3]; 25° C.
  Deliquescence conclusion from DRH: not deliquescent
[3]
  DRH (deliquescence relative humidity): 99.8 % RH
[2]
  Solubility in water: 20 mg/mL

## C[C@H]1CNCCc2ccc(Cl)cc21.Cl [lorcaserin, (R)-8-Chloro-1-methyl-2,3,4,5-tetrahydro-1H-3-benzazepine hydrochloride]
[4]; first phase 3 trial, based on a normal BMI of 25
  Excess body weight lost: about one-third
[4]; [6]
  Patients who achieved at least 5% weight loss: About two-thirds
  Patients who achieved at least 10% weight loss: over one-third
[4]; pivotal phase 3 program
  Average weight lost, % of weight: about 8%
  Depression or suicidal ideation: no signal
  Heart rate and blood pressure: went down
  Risk of cardiac valvulopathy: did not increase the risk of cardiac valvulopathy
[4]; [7]
  Average weight loss of the top quartile, % of body weight: 16%
  Average weight loss of the top quartile, pounds: 35 pounds
[5]; 12 months, ITT-LOCF analysis
  Average weight loss, % of body weight: 5.8%
  Average weight loss, pounds: 12.7 pounds
  Patients who lost greater than or equal to 5% of their body weight from baseline: 47.5%
  Patients who lost greater than or equal to 10% of their body weight from baseline: 22.6%
[5]; [8]
  Average weight loss of completers, % of body weight: 8.2%
  Average weight loss of completers, pounds: 17.9 pounds
[5]; phase 3 trial
  Tolerability: generally very well tolerated
[5]; two-year treatment period
  FDA-defined valvulopathy (echocardiograms): no apparent drug-related effect

## C[C@H]1CNCCc2ccc(Cl)cc21.C[C@H]1CNCCc2ccc(Cl)cc21.O=C(O)[C@@H](O)[C@H](O)[C@H](O)[C@@H](O)C(=O)O [Compound 1 Hemimucate Salt, Form I, (R)-8-Chloro-1-methyl-2,3,4,5-tetrahydro-1H-3-benzazepine Hemimucate]
[2]
  Solubility in water: 0.85 mg/mL

## (R)-8-Chloro-1-methyl-2,3,4,5-tetrahydro-1H-3-benzazepine Hemi-L-malate Salt [Compound 1 Hemi-L-Malate Salt, Form I]
[3]
  DRH (deliquescence relative humidity): 89.9 % RH
[2]
  Solubility in water: 486.3 mg/mL
